Test system: HO-1
Assay: HO-1/GAPDH mRNA in cortex after IV FeS + SnPP (biomarker for oxidative stress)
Format: in vivo
Details: combined with iron sucrose
Protocol: The SnPP composition of Example 1 and the Comparative Example (1 micromole) were combined with iron sucrose (1 mg) to assess biomarkers for oxidative stress.

In the case of `C=CC1=C(C)C2=Cc3c(C=C)c(C)c4[n]3[Sn]([Cl])([Cl])[n]3c(c(C)c(CCC(=O)O)c3=CC3=NC(=C4)C(C)=C3CCC(=O)O)=CC1=N2` [Example 1, Stannic protoporfin], the “HO-1 induction relative to the comparative example, in words” value is reported as “lower HO-1 induction”.
